From patent US12655116B2, “Substituted isophthalic acid diamides” (Bayer Aktiengesellschaft, priority 2020, dated 2026)

Legend:
[1] = tested on: VIOTR; experiment: Post-emergence herbicidal action against VIOTR; type: in vivo, Viola tricolor; details: 20 g/ha; for pest or weed control at 20 g/ha: Viola tricolor, 504 h
Procedure, shortened: (§1)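 Percent herbicidal action is rated by eye about 3 weeks after treatment against untreated controls, where 100% means dead plants and 0% means like controls. Plants in sandy loam are sprayed on green parts at the one-leaf stage with aqueous WP or EC preparations at 600 to 800 l/ha plus 0.2% wetting agent.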

[2] = tested on: SETVI; experiment: Post-emergence herbicidal action against SETVI; type: in vivo, Setaria viridis; details: dosage 20 g/ha
Procedure, shortened: as §1

[3] = tested on: AMARE; experiment: Pre-emergence herbicidal action against AMARE; type: in vivo, Amaranthus retroflexus
Procedure, shortened: (§2)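 Seeds sown in sandy loam, soil-covered; compound sprayed on soil surface pre-emergence. Application: WP/EC, 600–800 l/ha, 0.2% wetting agent. Readout: visual % damage at 3 weeks.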

[4] = tested on: ALOMY; experiment: Pre-emergence herbicidal action against ALOMY; type: in vivo, Alopecurus myosuroides; details: 80 g/ha, pre-emergence, scored visually after 3 weeks vs untreated controls (100% = plants have died, 0% = like control plants); for pest or weed control at 80 g/ha: Alopecurus myosuroides, 504 h
Procedure, shortened: as §2

[5] = tested on: VERPE; experiment: Post-emergence herbicidal action against VERPE; type: in vivo, Veronica persica; details: 20 g/ha; for pest or weed control at 20 g/ha: Veronica persica, 504 h
Procedure, shortened: as §1

[6] = tested on: ABUTH; experiment: Pre-emergence herbicidal action against ABUTH; type: in vivo, Abutilon theophrasti; details: for pest or weed control at 80 g/ha: Abutilon theophrasti, 504 h
Procedure, shortened: as §2

[7] = tested on: POLCO; experiment: Pre-emergence herbicidal action against POLCO; type: in vivo, Polygonum convolvulus; details: dosage 80 g/ha; for pest or weed control at 80 g/ha: Fallopia convolvulus, 504 h
Source text: Seeds of monocotyledonous and dicotyledonous weed plants and crop plants are laid out in sandy loam soil in wood-fiber pots and covered with soil. The compounds of the invention, formulated in the form of wettable powders (WP) or as emulsion concentrates (EC), are then applied to the surface of the covering soil in the form of an aqueous suspension or emulsion at a water application rate equivalent to 600 to 800 l/ha, with addition of 0.2% wetting agent. After the treatment, the pots are placed in a greenhouse and kept under good growth conditions for the trial plants. The damage to the test plants is scored visually after a test period of 3 weeks by comparison with untreated controls (herbicidal activity in percent (%): 100% activity=the plants have died, 0% activity=like control plants). […] The tables below illustrate, in an illustrative manner, the post-emergence herbicidal action of the compounds of the invention, the herbicidal activity being stated in percent.

[8] = tested on: MATIN; experiment: Pre-emergence herbicidal action against MATIN; type: in vivo, Matricaria inodora; details: for pest or weed control at 20 g/ha / pest or weed control at 80 g/ha: Tripleurospermum inodorum, 504 h
Procedure, shortened: as §2

[9] = tested on: SETVI; experiment: Pre-emergence herbicidal action against SETVI; type: in vivo, Setaria viridis; details: dosage 80 g/ha; for pest or weed control at 80 g/ha: Setaria viridis, 504 h
Procedure, shortened: as §2

[10] = tested on: ALOMY; experiment: Post-emergence herbicidal action against ALOMY; type: in vivo, Alopecurus myosuroides; details: dosage 20 g/ha, visual assessment about 3 weeks after treatment vs untreated controls; for pest or weed control at 20 g/ha: Alopecurus myosuroides, 504 h
Procedure, shortened: as §1

[11] = tested on: AMARE; experiment: Post-emergence herbicidal action against AMARE; type: in vivo, Amaranthus retroflexus; details: 20 g/ha, visual assessment about 3 weeks after treatment, 100% = plants have died, 0% = like control plants; for pest or weed control at 20 g/ha: Amaranthus retroflexus, 504 h
Procedure, shortened: as §1

[12] = tested on: ABUTH; experiment: Post-emergence herbicidal action against ABUTH; type: in vivo, Abutilon theophrasti; details: visual assessment about 3 weeks after treatment vs untreated controls; for pest or weed control at 5 g/ha / pest or weed control at 20 g/ha: Abutilon theophrasti, 504 h; for pest or weed control at 5 g/ha: dosage 5 g/ha
Procedure, shortened: as §1

[13] = tested on: ECHCG; experiment: Post-emergence herbicidal action against ECHCG; type: in vivo, Echinochloa crus-galli
Procedure, shortened: as §1

[14] = tested on: VIOTR; experiment: Pre-emergence herbicidal action against VIOTR; type: in vivo, Viola tricolor; details: dosage 80 g/ha
Procedure, shortened: as §2

[15] = tested on: VERPE; experiment: Pre-emergence herbicidal action against VERPE; type: in vivo, Veronica persica
Procedure, shortened: as §2

[16] = tested on: PHBPU; experiment: Post-emergence herbicidal action against PHBPU; type: in vivo, Pharbitis purpurea; details: dosage 20 g/ha
Procedure, shortened: as §1

[17] = tested on: DIGSA; experiment: Post-emergence herbicidal action against DIGSA; type: in vivo, Digitaria sanguinalis; details: 20 g/ha
Procedure, shortened: as §1

[18] = tested on: DIGSA; experiment: Pre-emergence herbicidal action against DIGSA; type: in vivo, Digitaria sanguinalis
Procedure, shortened: as §2

[19] = tested on: ECHCG; experiment: Pre-emergence herbicidal action against ECHCG; type: in vivo, Echinochloa crus-galli; details: 80 g/ha
Procedure, shortened: as §2

[20] = Amaranthus retroflexus, 504 h, 80 g/ha, scored visually after 3 weeks vs untreated controls, 100% = plants have died, 0% = like control plants
[21] = 80 g/ha, scored visually after 3 weeks vs untreated controls (100% = plants have died, 0% = like control plants)

## CNC(=O)c1c(OC)ccc(C(=O)Nc2nnnn2C)c1Cl [Example 1-354]
[1]
  pest or weed control at 20 g/ha: 90%
[2]; Setaria viridis, 504 h
  pest or weed control at 20 g/ha: 100%
[3]; [20]
  pest or weed control at 80 g/ha: 100%
[4]
  pest or weed control at 80 g/ha: 80%
[5]
  pest or weed control at 20 g/ha: 90%
[6]; [21]
  pest or weed control at 80 g/ha: 100%
[7]
  pest or weed control at 80 g/ha: 80%
[8]; dosage 20 g/ha
  pest or weed control at 20 g/ha: 80%
[8]; dosage 80 g/ha
  pest or weed control at 80 g/ha: 80%
[9]
  pest or weed control at 80 g/ha: 90%
[10]
  pest or weed control at 20 g/ha: 80%
[11]
  pest or weed control at 20 g/ha: 100%
[12]
  pest or weed control at 5 g/ha: 90%
[12]; dosage 20 g/ha
  pest or weed control at 20 g/ha: 100%

## CCNC(=O)c1c(OC)ccc(C(=O)Nc2nnnn2C)c1Cl [Example 1-355]
[13]; Echinochloa crus-galli, 504 h, dosage 20 g/ha
  pest or weed control at 20 g/ha: 90%
[1]
  pest or weed control at 20 g/ha: 100%
[14]; Viola tricolor, 504 h
  pest or weed control at 80 g/ha: 100%
[3]; Amaranthus retroflexus, 504 h, 20 g/ha, scored visually after 3 weeks vs untreated controls, 100% = plants have died, 0% = like control plants
  pest or weed control at 20 g/ha: 100%
[3]; [20]
  pest or weed control at 80 g/ha: 100%
[4]
  pest or weed control at 80 g/ha: 90%
[5]
  pest or weed control at 20 g/ha: 90%
[6]; [21]
  pest or weed control at 80 g/ha: 100%
[7]
  pest or weed control at 80 g/ha: 80%
[8]; dosage 20 g/ha
  pest or weed control at 20 g/ha: 80%
[8]; dosage 80 g/ha
  pest or weed control at 80 g/ha: 100%
[9]
  pest or weed control at 80 g/ha: 90%
[15]; Veronica persica, 504 h, dosage 80 g/ha
  pest or weed control at 80 g/ha: 100%
[10]
  pest or weed control at 20 g/ha: 80%
[16]; Ipomoea purpurea, 504 h
  pest or weed control at 20 g/ha: 80%
[11]
  pest or weed control at 20 g/ha: 100%
[12]
  pest or weed control at 5 g/ha: 80%
[12]; dosage 20 g/ha
  pest or weed control at 20 g/ha: 100%

## CCn1nnnc1NC(=O)c1ccc(C(F)F)c(C(=O)NCCOC)c1Cl [Example 2-156]
[17]
  Post-emergence action against DIGSA: 80%
[13]; dosage 5 g/ha
  Post-emergence action against ECHCG in %: 90%
[13]; dosage 20 g/ha
  Post-emergence action against ECHCG in %: 90%
[1]
  Post-emergence action against VIOTR in %: 80%
[14]
  Pre-emergence action against VIOTR in %: 100%
[2]
  Post-emergence action against SETVI in %: 80%
[3]; 20 g/ha, scored visually after 3 weeks vs untreated controls, 100% = plants have died, 0% = like control plants
  Pre-emergence action against AMARE in %: 100%
[3]; [21]
  Pre-emergence action against AMARE in %: 100%
[4]
  Pre-emergence action against ALOMY (herbicidal activity): 100%
[5]
  Post-emergence action against VERPE in %: 90%
[6]; [21]
  Pre-emergence action against ABUTH (herbicidal activity): 100%
[6]; dosage 20 g/ha, scored visually after 3 weeks vs untreated controls, 100% = plants have died, 0% = like control plants
  Pre-emergence action against ABUTH (herbicidal activity in percent): 100%
[7]
  Pre-emergence action against POLCO in %: 90%
[8]; dosage 20 g/ha
  Pre-emergence action against MATIN in %: 100%
[8]; dosage 80 g/ha
  Pre-emergence action against MATIN in %: 100%
[18]; dosage 20 g/ha
  Pre-emergence action against DIGSA in %: 100%
[18]; dosage 80 g/ha
  Pre-emergence action against DIGSA in %: 100%
[9]
  Pre-emergence action against SETVI in %: 100%
[19]
  Pre-emergence action against ECHCG in %: 100%
[15]; dosage 20 g/ha
  Pre-emergence action against VERPE in %: 80%
[15]; dosage 80 g/ha
  Pre-emergence action against VERPE in %: 100%
[10]
  Post-emergence action against ALOMY in %: 90%
[16]
  Post-emergence action against PHBPU in %: 90%
[11]
  Post-emergence action at 20 g/ha against AMARE in %: 90%
[12]; dosage 20 g/ha
  Post-emergence action against ABUTH in %: 90%
